Values after ≈ are worked out from the molar mass of the structure shown. One block for each molecule: values may come before it.
Key:
[1] = Prodrug conversion in cannulated Sprague-Dawley rat plasma assessed as atazanavir formation at 3 mg/kg equiv of atazanavir administered orally by UPLC/MS/MS analysis; assay type: ADME, organism-based; conditions: in vivo, po
[2] = Prodrug conversion assessed as recombinant rat intestinal alkaline phosphatase-mediated compound dephosphorylation by measuring half life by UPLC-MS/MS analysis; assay type: ADME
[3] = Prodrug conversion assessed as recombinant human intestinal alkaline phosphatase-mediated compound dephosphorylation by measuring half life by UPLC-MS/MS analysis; assay type: ADME; conditions: isolated protein
physchem [4] = conditions: 30% CH3CN/HCl buffer, pH 1
Description: Half life in pH 1 30%CH3CN/HCl buffer at 50 mM by RP-UPLC analysis

physchem [5] = conditions: 30% CH3CN/acetate buffer, pH 4
Description: Half life in pH 4 30%CH3CN/acetate buffer at 50 mM by RP-UPLC analysis

physchem [6] = conditions: 30% CH3CN/phosphate buffer, pH 6.5
Description: Half life in pH 6.5 30%CH3CN/phosphate buffer at 50 mM by RP-UPLC analysis

physchem [7] = conditions: HCl buffer, pH 1
Description: Aqueous solubility of the compound in pH 1 HCl buffer by RP-UPLC analysis

physchem [8] = conditions: acetate buffer, pH 4
Description: Aqueous solubility of the compound in pH 4 acetate buffer by RP-UPLC analysis

physchem [9] = conditions: phosphate buffer, pH 6.5
Description: Aqueous solubility of the compound in pH 6.5 phosphate buffer by RP-UPLC analysis

[10] = Aqueous solubility of the compound in pH 3 buffer by RP-UPLC analysis; assay type: physicochemical
[11] = Aqueous solubility of the compound in pH 4 citrate buffer by RP-UPLC analysis; assay type: physicochemical
[12] = Aqueous solubility of the compound in pH 5 buffer by RP-UPLC analysis; assay type: physicochemical
[13] = Elimination half life in rat hepatocytes at 1 uM in absence of esterase inhibitor PMSF/CYP450 inhibitor ABT; assay type: ADME, cell-based, Hepatocyte; conditions: read-out: beta t1/2
[14] = Prodrug conversion in mesenteric vein plasma of closed loop rat intestinal model assessed as atazanavir recovery at 1 mg/kg administered as cassette dose by LC/MS analysis; assay type: ADME, organism-based; conditions: in vivo
[15] = Prodrug conversion in intestinal homogenates of closed loop rat intestinal model assessed as atazanavir recovery at 1 mg/kg administered as cassette dose by LC/MS analysis; assay type: ADME, organism-based, Intestine; conditions: in vivo
[16] = Prodrug conversion in intestinal content of closed loop rat intestinal model assessed as atazanavir recovery at 1 mg/kg administered as cassette dose by LC/MS analysis; assay type: ADME, organism-based; conditions: in vivo
[17] = target: T1, UDP-glucuronosyltransferase 1A1 (Homo sapiens, UniProt P22309); assay: Inhibition of recombinant human UGT1A1 using bilirubin as substrate preincubated for 5 mins followed by substrate addition and measured after 40 mins by LC-MS/MS analysis; assay type: ADME
T1 sequence (P22309 whole entry): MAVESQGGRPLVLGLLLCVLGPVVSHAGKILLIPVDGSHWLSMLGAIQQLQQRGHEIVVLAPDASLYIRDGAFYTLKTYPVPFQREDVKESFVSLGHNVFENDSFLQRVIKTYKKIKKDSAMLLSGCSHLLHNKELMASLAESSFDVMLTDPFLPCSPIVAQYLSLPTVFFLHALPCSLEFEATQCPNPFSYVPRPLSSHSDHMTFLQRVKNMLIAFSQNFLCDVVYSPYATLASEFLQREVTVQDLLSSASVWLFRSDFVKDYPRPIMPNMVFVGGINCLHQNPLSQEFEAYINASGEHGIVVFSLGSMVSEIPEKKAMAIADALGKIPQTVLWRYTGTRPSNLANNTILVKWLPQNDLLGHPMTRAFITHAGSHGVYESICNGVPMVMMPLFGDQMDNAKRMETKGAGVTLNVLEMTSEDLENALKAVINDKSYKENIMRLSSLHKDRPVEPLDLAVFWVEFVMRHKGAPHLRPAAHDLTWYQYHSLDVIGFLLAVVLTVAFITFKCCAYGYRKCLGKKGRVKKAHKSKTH

[18] = target: T2, UDP-glucuronosyltransferase 1A1 (Rattus norvegicus, UniProt Q64550); assay: Inhibition of recombinant rat UGT1A1 using beta-estradiol as substrate preincubated for 5 mins followed by substrate addition and measured after 40 mins by LC-MS/MS analysis; assay type: ADME
T2 sequence (Q64550 whole entry): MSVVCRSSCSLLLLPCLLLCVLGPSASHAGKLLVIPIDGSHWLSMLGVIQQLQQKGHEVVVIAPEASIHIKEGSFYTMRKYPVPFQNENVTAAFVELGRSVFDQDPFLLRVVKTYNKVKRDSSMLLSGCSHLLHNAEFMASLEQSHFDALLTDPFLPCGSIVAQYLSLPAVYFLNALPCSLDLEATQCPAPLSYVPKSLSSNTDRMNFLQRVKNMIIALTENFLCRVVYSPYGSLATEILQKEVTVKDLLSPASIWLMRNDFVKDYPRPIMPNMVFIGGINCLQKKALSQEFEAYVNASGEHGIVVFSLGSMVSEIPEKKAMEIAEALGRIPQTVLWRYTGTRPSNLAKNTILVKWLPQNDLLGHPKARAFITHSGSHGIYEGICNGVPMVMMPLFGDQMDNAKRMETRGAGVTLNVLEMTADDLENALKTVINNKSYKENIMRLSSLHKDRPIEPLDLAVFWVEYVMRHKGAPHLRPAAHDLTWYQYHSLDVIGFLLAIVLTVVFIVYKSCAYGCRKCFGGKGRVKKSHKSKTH

[19] = target: T1, UDP-glucuronosyltransferase 1A1; assay: Inhibition of UGT1A1 in human liver microsomes using beta-estradiol as substrate preincubated for 5 mins followed by substrate addition and measured after 40 mins by LC-MS/MS analysis; assay type: ADME
[20] = target: T2, UDP-glucuronosyltransferase 1A1; assay: Inhibition of UGT1A1 in rat liver microsomes using beta-estradiol as substrate preincubated for 5 mins followed by substrate addition and measured after 40 mins by LC-MS/MS analysis; assay type: ADME
[21] = Drug recovery in feces of po dosed human; assay type: ADME, organism-based; conditions: faeces, read-out: Drug recovery
[22] = Oral bioavailability in rat; assay type: ADME, organism-based; conditions: in vivo
[23] = Oral bioavailability in dog; assay type: ADME, organism-based, Canis lupus familiaris; conditions: in vivo
[24] = Drug recovery in feces of po dosed rat; assay type: ADME, organism-based; conditions: faeces, read-out: Drug recovery
[25] = Drug recovery in feces of po dosed dog; assay type: ADME, organism-based, Canis lupus familiaris; conditions: faeces, read-out: Drug recovery
[26] = Dissociation constant, pKa of the compound; assay type: physicochemical
Protease = Protease (Human immunodeficiency virus 1, UniProt Q9YQ12)
Description: Inhibition of HIV1 protease activity

physchem [27] = conditions: phosphate buffer, pH 7.4
Description: Aqueous solubility of the compound in pH 7.4 phosphate buffer by RP-UPLC analysis

in vitro [28] = conditions: human, Caco-2
Description: Apparent permeability across apical to basolateral side in human Caco2 cells at 2 uM

in vitro [29] = conditions: human, Caco-2; remark: listed apart in the source
Description: Apparent permeability across basolateral to apical side in human Caco2 cells at 2 uM

in vitro [30] = conditions: human, Caco-2; remark: listed apart in the source
Description: Efflux ratio of apparent permeability across basolateral to apical side over apical to basolateral side in human Caco2 cells

[31] = system: Human immunodeficiency virus 1; assay: microbe, parasite or virus in culture; conditions: Human immunodeficiency virus 1, NL4-3, MT2, 96 h
Description: Antiviral activity against HIV1 NL4-3 infected in human MT2 cells assessed as reduction in viral yield measured after 4 days by EnduRen live cell substrate based luciferase reporter gene assay

[32] = Prodrug conversion assessed as calf intestinal alkaline phosphatase-mediated compound dephosphorylation by measuring half life by UPLC-MS/MS analysis; assay type: ADME, Bos taurus; conditions: cattle, isolated protein
[33] = Drug recovery in mesenteric vein plasma of closed loop rat intestinal model at 1 mg/kg administered as cassette dose by LC/MS analysis; assay type: ADME, organism-based; conditions: in vivo
[34] = Drug recovery in intestinal homogenates of closed loop rat intestinal model at 1 mg/kg administered as cassette dose by LC/MS analysis; assay type: ADME, organism-based, Intestine; conditions: intestinal homogenate, other: closed loop intestinal model, read-out: Drug recovery
[35] = Drug recovery in intestinal content of closed loop rat intestinal model at 1 mg/kg administered as cassette dose by LC/MS analysis; assay type: ADME, organism-based; conditions: in vivo

Protease, sequence (Q9YQ12 whole entry): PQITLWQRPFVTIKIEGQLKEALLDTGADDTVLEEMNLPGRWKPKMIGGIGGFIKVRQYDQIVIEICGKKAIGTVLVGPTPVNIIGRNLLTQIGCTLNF

Drug metabolism [1]: Metabolite_Notdetected | t1/2 [2]: > 0.0833 days | t1/2 [3]: > 0.0833 days | half-life at 50000 µM (physchem [4]): 13.9 days | half-life at 50000 µM (physchem [5]): 13.9 days | half-life at 50000 µM (physchem [6]): 10.4 days | solubility (physchem [7]): > 2650 µg/mL | solubility (physchem [8]): 250 µg/mL (≈ 319 µM) | solubility (physchem [9]): > 2870 µg/mL
Compound: COC(=O)N[C@H](C(=O)N[C@@H](Cc1ccccc1)[C@H](CN(Cc1ccc(-c2ccccn2)cc1)NC(=O)[C@@H](NC(=O)OC)C(C)(C)C)OP(=O)(O)O)C(C)(C)C

Compound: COC(=O)N[C@H](C(=O)N[C@@H](Cc1ccccc1)[C@@H](O)CN(Cc1ccc(-c2ccccn2)cc1)NC(=O)[C@@H](NC(=O)OC)C(C)(C)C)C(C)(C)C [ATAZANAVIR]
solubility [10]: 28 µg/mL (≈ 39.7 µM) | solubility [11]: < 1 µg/mL | solubility [12]: < 1 µg/mL | half-life at 1 µM [13]: 0.0187 days | Drug recovery [14]: 1.4% | Drug recovery [15]: 1.6% | Drug recovery [16]: 16.1% | IC50 [17]: 0.3 µM | IC50 [18]: 4.2 µM | IC50 [19]: 0.6 µM | IC50 [20]: 3.4 µM | dose excreted [21]: 79% | bioavailability [22]: 15% | bioavailability [23]: 36% | dose excreted [24]: 39% | dose excreted [25]: 79% | pKa [26]: 4.7 | IC50 (Protease): 0.0003 µM | solubility (physchem [27]): < 1 µg/mL | Papp A→B at 2 µM (in vitro [28]): < 1.5 ×10⁻⁶ cm/s | Papp B→A at 2 µM (in vitro [29]): 20.3 ×10⁻⁶ cm/s | efflux ratio (in vitro [30]): > 14 | EC50 [31]: 0.0007 µM

Drug metabolism [1]: Metabolite_Detected | t1/2 [32]: 0.00917 days
Compound: Cc1cccc(C)c1OCC(=O)N[C@@H](Cc1ccccc1)[C@@H](O)C[C@H](Cc1ccccc1)NC(=O)[C@H](C(C)C)N1CCCNC1=O [LOPINAVIR]

Drug recovery [33]: 1.3% | recovery [34]: 14% | Drug recovery [35]: 45%
Compound: CC(C)(C)NCC(O)COc1cccc2c1CC(O)C(O)C2 (configuration not stated) [NADOLOL]
